What all share (format): cell-based
In assay [1] the target is GLP-1 receptor (GPA1/Gαs chimera) (Homo sapiens, UniProt P43220). Briefly: Yeast growth assay, GPA1/Gαs chimera strain expressing the GLP-1 receptor.
Assay [2] has as its target GLP-1 receptor (GPA1/Gαi chimera) (Homo sapiens, UniProt P43220). Briefly: Yeast growth assay, GPA1/Gαi chimera strain expressing the GLP-1 receptor.
In a further assay the target is GLP-1 receptor (Homo sapiens, UniProt P43220). Description: G protein signalling bias, GPA1/Gαs versus GPA1/Gαi, yeast assays. The following applies: normalized responses at equivalent ligand concentrations.
Setting [3] is: yeast, 20 h, percentage of the maximum response achieved through activation of GPA1/Gαs, mean ± SEM, n = 5, SEM.
Where [4] appears, read: yeast, 20 h, three-parameter logistic fit, mean ± SEM, n = 5, SEM.

Each structure is given as a SMILES string. Where two headings read alike, the source gives them in different places.

GLP-1 receptor (GPA1/Gαs chimera), sequence (P43220 24-463, change not shown): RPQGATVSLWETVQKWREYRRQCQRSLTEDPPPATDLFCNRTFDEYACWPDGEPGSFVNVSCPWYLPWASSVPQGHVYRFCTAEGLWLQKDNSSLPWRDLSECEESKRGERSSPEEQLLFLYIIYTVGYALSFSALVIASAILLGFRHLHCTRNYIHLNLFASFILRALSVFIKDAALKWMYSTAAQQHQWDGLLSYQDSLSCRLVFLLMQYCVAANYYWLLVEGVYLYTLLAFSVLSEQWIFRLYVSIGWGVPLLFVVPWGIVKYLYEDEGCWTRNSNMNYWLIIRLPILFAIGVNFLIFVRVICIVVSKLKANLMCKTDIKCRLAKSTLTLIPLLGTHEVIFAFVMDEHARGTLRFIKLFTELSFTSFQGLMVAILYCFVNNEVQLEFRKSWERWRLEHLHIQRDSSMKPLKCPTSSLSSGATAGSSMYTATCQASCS
GLP-1 receptor (GPA1/Gαi chimera), sequence (P43220 24-463, change not shown): as above
GLP-1 receptor, sequence (P43220 24-463): as the sequence (P43220 24-463, change not shown) above

With `CC(C)(C)Nc1nc2cc(Cl)c(Cl)cc2nc1S(C)(=O)=O` [Compound 2, 6,7-dichloro-2-methylsulfonyl-3-N-tert-butylaminoquinoxaline], the “Emax (GLP-1 receptor, GPA1/Gαs), non-peptide agonists” value in assay [1] (setting [3]) worked out at 100 ± 7.3%. Further, the “pEC50 (GLP-1 receptor, GPA1/Gαs), non-peptide agonists” value in assay [1] (setting [4]) was 8.6 ± 0.2. Further, the “Emax (GLP-1 receptor, GPA1/Gαi), non-peptide agonists” value in assay [2] (setting [3]) amounted to 67.5 ± 7.3 %. Further, the “pEC50 (GLP-1 receptor, GPA1/Gαi), non-peptide agonists” value in assay [2] (setting [4]) was 8.5 ± 0.3.

With `CC[S+]([O-])c1nc(-c2cccc(OCc3ccccc3)c2)cc(C(F)(F)F)n1` (centres unmarked) [BETP, 4-(3-benzyloxyphenyl)-2-ethylsulfinyl-6-(trifluoromethyl) pyrimidine], at GLP-1 receptor, the “Equimolar bias plot, GPA1/Gαs versus GPA1/Gαi” value is “did not deviate from the no-bias line of unity”. Besides, the EC50 was 7.94 nM in assay [1] (pEC50 (GLP-1 receptor, GPA1/Gαs), non-peptide agonists, yeast, 20 h, three-parameter logistic fit, mean ± SEM, n = 5, SEM); 10 nM in assay [1] (value quoted in running text, read-out: EC50 (yeast, GPA1/Gαs)); 15.8 nM in assay [2] (pEC50 (GLP-1 receptor, GPA1/Gαi), non-peptide agonists, yeast, 20 h, three-parameter logistic fit, mean ± SEM, n = 5, SEM); 15 nM in assay [2] (value quoted in running text, read-out: EC50 (yeast, GPA1/Gαi)). Further, the Emax in assay [1] (read-out: Emax (GLP-1 receptor, non-peptide agonists), yeast, 20 h, percentage of the maximum response achieved through activation of GPA1/Gαs, mean ± SEM, n = 5, SEM) turned out to be 100 ± 5.1%; in assay [2] (read-out: Emax (GLP-1 receptor, GPA1/Gαi), non-peptide agonists, yeast, 20 h, percentage of the maximum response achieved through activation of GPA1/Gαs, mean ± SEM, n = 5, SEM) it was 96.5 ± 4.3%.

Source of the values: PMC4128063, “Investigating G protein signalling bias at the glucagon-like peptide-1 receptor in yeast” (British Journal of Pharmacology, 2014).
